According to patent US7959904B2, “Delivery of medicaments to the nail” (University of Mississippi, priority 2001, dated 2011):

Experiment: Permeability study through full thickness nail plates in modified Franz diffusion cells
Assay type: in vitro ADME, human
Settings: for Total permeation of drug through nail plates: phosphate buffer pH 7.2 / 0.5% Brij 58 donor, after 48 hours
Experimental: Example 6 examines permeability of the medicament into the nail. For this Example, ketoconazole is utilized as a model drug to perform permeability studies. The drug is dissolved in two different media for testing which functioned as the donor solution. The first is an isotonic phosphate buffer solution (pH 7.2) with 0.5% Brij 58 as a solubilizer. The second is an 80:20 methanol/water solution buffered to pH 7.2. The receptor media is the same as the donor media without dissolved drug in both cases.
A system employing 9 modified glass Franz diffusion cells is used. Full thickness nail plates are sandwiched between two polypropylene adapters with an O-ring and were mounted on the individual cells with the dorsal nail plate facing the donor compartment (receptor volume 5.2 ml; donor surface area 0.5 cm^2). The receptor fluid is maintained at 37±0.5° C. and is continuously stirred with a magnetic bar. The donor solutions are applied to the dorsal nail surface following a one hour hydration period. Samples of the receptor phase are withdrawn at predetermined time intervals (for up to 48 hours) and immediately replaced with fresh […]. Analysis of the samples is corrected for previous drug removed. The receptor and donor compartments are sealed with a sheet of aluminum foil and wrapped with parafilm. The hermeticity of the system was continuously monitored. Drug content in the receptor media is determined using high performance liquid chromatography.

Greater total permeation, etched vs nonetched nail (80:20 methanol/water buffered to pH 7.2 donor): ~3 fold
Total permeation of drug through nail (80:20 methanol/water buffered to pH 7.2 donor, etched nail): 6,191±323.3 μg/cm^2
Total permeation of drug through nail (80:20 methanol/water buffered to pH 7.2 donor, nonetched nail): 2,497±237 μg/cm^2
Total permeation of drug through nail plates (etched nail plates): 1,873 (±155) μg/cm^2
Total permeation of drug through nail plates (unetched nail plates): 446 (±51) μg/cm^2
Difference in total permeation, etched vs unetched nail (phosphate buffer/Brij 58 donor, 48 hours): ~4 fold
Compound: CC(=O)N1CCN(c2ccc(OCC3COC(Cn4ccnc4)(c4ccc(Cl)cc4Cl)O3)cc2)CC1 (stereo not drawn) [ketoconazole]
